According to patent US8952024B2, “Herbicidal pyrimidone derivatives” (E I du Pont de Nemours and Company, priority 2009, dated 2015):

Legend:
Assay type in all cases: in vivo
[1] = test system: green foxtail (Setaria viridis); assay: Test B pre-/postemergence plant response; conditions: for Plant response rating, Foxtail, Green: Postemergence
In short: (§1)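 Compound in solvent + surfactant applied pre-em (loam/sand) or post-em (plants 2–18 cm, peat medium); greenhouse hold 13–15 days; visual 0–100 control score.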

[2] = test system: cocklebur (Xanthium strumarium); assay: Test B pre-/postemergence plant response; conditions: for Plant response rating, Cocklebur: Postemergence
In short: as §1

[3] = test system: giant foxtail (Setaria faberii); assay: Test B pre-/postemergence plant response; conditions: for Plant response rating, Foxtail, Giant: Postemergence
In short: as §1

[4] = test system: barnyardgrass (Echinochloa crus-galli); assay: Test A pre-/postemergence plant response
In short: (§2)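 Injury was scored visually after roughly ten days against untreated controls, 0 = no effect, 100 = complete control. Test chemicals in a surfactant-containing non-phytotoxic solvent were sprayed either onto soil preemergence or onto one- to two-leaf, 2–10 cm plants postemergence.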

[5] = test system: wheat (Triticum aestivum); assay: Test A pre-/postemergence plant response
In short: as §2

[6] = test system: large crabgrass (Digitaria sanguinalis); assay: Test A pre-/postemergence plant response
In short: as §2

corn (Zea mays) = assay: Test A pre-/postemergence plant response
In short: as §2

[7] = test system: giant foxtail (Setaria faberii); assay: Test A pre-/postemergence plant response
In short: as §2

[8] = test system: pigweed (Amaranthus retroflexus); assay: Test A pre-/postemergence plant response
In short: as §2

[9] = test system: morningglory (Ipomoea spp.); assay: Test A pre-/postemergence plant response
In short: as §2

[10] = test system: velvetleaf (Abutilon theophrasti); assay: Test A pre-/postemergence plant response
In short: as §2

[11] = 31 g ai/ha, 0 to 100 scale (0 no effect, 100 complete control)
[12] = 125 g ai/ha, scale 0 to 100 (0 no effect, 100 complete control)
[13] = 250 g ai/ha, scale 0 to 100 (0 no effect, 100 complete control), 13 to 15 days
[14] = 62 g ai/ha, scale 0 to 100 (0 no effect, 100 complete control)
[15] = Postemergence, 125 g ai/ha, 0 to 100 scale where 0 is no effect and 100 is complete control
[16] = Postemergence, 500 g ai/ha, visual injury, 0 to 100 scale (0 no effect, 100 complete control), approx. ten days
[17] = Preemergence, 125 g ai/ha, 0 to 100 scale, 0 = no effect, 100 = complete control
[18] = Preemergence, 500 g ai/ha, 0 to 100 scale, 0 = no effect, 100 = complete control
[19] = 62 g ai/ha, postemergence, 0 is no effect, 100 is complete control, 13 to 15 days
[20] = Postemergence, 500 g ai/ha, 0 to 100 scale, 0 = no effect, 100 = complete control, approx. ten days
[21] = Preemergence, 500 g ai/ha, visual injury, 0 to 100 scale (0 no effect, 100 complete control), approx. ten days

CCn1c(-c2cccc(F)c2)ncc(C(=O)C2=C(O)C3CCC(C3)C2=O)c1=O (centres unmarked) [Compound 236]
Plant response rating, Foxtail, Green [1, 11]: 80 | Plant response rating, Foxtail, Green [1, 12]: 98 | Plant response rating, Foxtail, Green [1, 13]: 98 | Plant response rating, Foxtail, Green [1, 14]: 95 | Plant response rating, Cocklebur [2, 12]: 100 | Plant response rating, Cocklebur [2, 13]: 100 | Plant response rating, Cocklebur [2, 14]: 100 | Plant response rating, Foxtail, Giant [3, 11]: 75 | Plant response rating, Foxtail, Giant [3, 12]: 95 | Plant response rating, Foxtail, Giant [3, 13]: 98 | Plant response rating, Foxtail, Giant [3, 14]: 80 | Plant response rating, Barnyardgrass [4, 15]: 90 | Barnyardgrass plant response rating [4, 16]: 90 | Plant response rating, Barnyardgrass [4, 17]: 50 | Plant response rating, Barnyardgrass [4, 18]: 90 | Plant response rating, Wheat [5, 15]: 0 | Wheat plant response rating [5, 16]: 40 | Plant response rating, Wheat [5, 17]: 0 | Plant response rating, Wheat [5, 18]: 30 | Plant response rating, Crabgrass, Large [6, 15]: 80 | Crabgrass, Large plant response rating [6, 16]: 90 | Plant response rating, Crabgrass, Large [6, 17]: 80 | Plant response rating, Crabgrass, Large [6, 18]: 100 | Plant response rating, Corn (corn (Zea mays); [15]): 20 | Corn plant response rating (corn (Zea mays); [16]): 50 | Plant response rating, Corn (corn (Zea mays); [17]): 0 | Plant response rating, Corn (corn (Zea mays); [18]): 10 | Plant response rating, Foxtail, Giant [7, 15]: 70 | Foxtail, Giant plant response rating [7, 16]: 90 | Plant response rating, Foxtail, Giant [7, 17]: 40 | Plant response rating, Foxtail, Giant [7, 18]: 70 | Plant response rating, Pigweed [8, 15]: 80 | Pigweed plant response rating [8, 16]: 100 | Plant response rating, Pigweed [8, 17]: 80 | Plant response rating, Pigweed [8, 18]: 90 | Plant response rating, Morningglory [9, 15]: 100 | Morningglory plant response rating [9, 16]: 100 | Plant response rating, Morningglory [9, 17]: 70 | Plant response rating, Morningglory [9, 18]: 80 | Plant response rating, Velvetleaf [10, 15]: 100 | Velvetleaf plant response rating [10, 16]: 100 | Plant response rating, Velvetleaf [10, 17]: 80 | Plant response rating, Velvetleaf [10, 18]: 100

CCCn1c(-c2cccc(F)c2)ncc(C(=O)C2=C(O)CCCC2=O)c1=O [Compound 127]
Foxtail, Green plant response rating (0 to 100 scale) [1, 19]: 85 | Plant response rating, Foxtail, Green [1, 11]: 75 | Plant response rating, Foxtail, Green [1, 12]: 90 | Plant response rating, Foxtail, Green [1, 13]: 95 | Cocklebur plant response rating (0 to 100 scale) [2, 19]: 95 | Plant response rating, Cocklebur [2, 11]: 75 | Plant response rating, Cocklebur [2, 12]: 95 | Plant response rating, Cocklebur [2, 13]: 100 | Foxtail, Giant plant response rating (0 to 100 scale) [3, 19]: 85 | Plant response rating, Foxtail, Giant [3, 11]: 80 | Plant response rating, Foxtail, Giant [3, 12]: 85 | Plant response rating, Foxtail, Giant [3, 13]: 90 | Plant response rating, Barnyardgrass [4, 15]: 80 | Plant response rating, Barnyardgrass [4, 20]: 90 | Plant response rating, Barnyardgrass [4, 17]: 40 | Plant response rating, Barnyardgrass [4, 21]: 100 | Plant response rating, Wheat [5, 15]: 0 | Plant response rating, Wheat [5, 20]: 0 | Plant response rating, Wheat [5, 17]: 0 | Plant response rating, Wheat [5, 21]: 0 | Plant response rating, Crabgrass, Large [6, 15]: 80 | Plant response rating, Crabgrass, Large [6, 20]: 90 | Plant response rating, Crabgrass, Large [6, 17]: 90 | Plant response rating, Crabgrass, Large [6, 21]: 100 | Plant response rating, Corn (corn (Zea mays); [15]): 20 | Plant response rating, Corn (corn (Zea mays); [20]): 20 | Plant response rating, Corn (corn (Zea mays); [17]): 0 | Plant response rating, Corn (corn (Zea mays); [21]): 0 | Plant response rating, Foxtail, Giant [7, 15]: 70 | Plant response rating, Foxtail, Giant [7, 20]: 80 | Plant response rating, Foxtail, Giant [7, 17]: 50 | Plant response rating, Foxtail, Giant [7, 21]: 90 | Plant response rating, Pigweed [8, 15]: 90 | Plant response rating, Pigweed [8, 20]: 100 | Plant response rating, Pigweed [8, 17]: 100 | Plant response rating, Pigweed [8, 21]: 100 | Plant response rating, Morningglory [9, 15]: 90 | Plant response rating, Morningglory [9, 20]: 100 | Plant response rating, Morningglory [9, 17]: 10 | Plant response rating, Morningglory [9, 21]: 80 | Plant response rating, Velvetleaf [10, 15]: 100 | Plant response rating, Velvetleaf [10, 20]: 100 | Plant response rating, Velvetleaf [10, 17]: 70 | Plant response rating, Velvetleaf [10, 21]: 100

Cc1ccc(-n2c(-c3cc(F)cc(F)c3)ncc(C(=O)C3=C(O)CCCC3=O)c2=O)cc1 [Compound 162]
Plant response rating, Foxtail, Green [1, 11]: 98 | Plant response rating, Foxtail, Green [1, 12]: 98 | Plant response rating, Foxtail, Green [1, 13]: 100 | Plant response rating, Cocklebur [2, 11]: 100 | Plant response rating, Cocklebur [2, 12]: 100 | Plant response rating, Cocklebur [2, 13]: 100 | Plant response rating, Foxtail, Giant [3, 11]: 85 | Plant response rating, Foxtail, Giant [3, 12]: 98 | Plant response rating, Foxtail, Giant [3, 13]: 98 | Plant response rating, Barnyardgrass [4, 15]: 100 | Barnyardgrass plant response rating [4, 16]: 100 | Plant response rating, Barnyardgrass [4, 17]: 10 | Plant response rating, Barnyardgrass [4, 18]: 100 | Plant response rating, Wheat [5, 15]: 30 | Wheat plant response rating [5, 16]: 50 | Plant response rating, Wheat [5, 17]: 0 | Plant response rating, Wheat [5, 18]: 50 | Plant response rating, Crabgrass, Large [6, 15]: 80 | Crabgrass, Large plant response rating [6, 16]: 100 | Plant response rating, Crabgrass, Large [6, 17]: 90 | Plant response rating, Crabgrass, Large [6, 18]: 100 | Plant response rating, Corn (corn (Zea mays); [15]): 0 | Corn plant response rating (corn (Zea mays); [16]): 50 | Plant response rating, Corn (corn (Zea mays); [17]): 0 | Plant response rating, Corn (corn (Zea mays); [18]): 0 | Plant response rating, Foxtail, Giant [7, 15]: 70 | Foxtail, Giant plant response rating [7, 16]: 100 | Plant response rating, Foxtail, Giant [7, 17]: 30 | Plant response rating, Foxtail, Giant [7, 18]: 90 | Plant response rating, Pigweed [8, 15]: 100 | Pigweed plant response rating [8, 16]: 100 | Plant response rating, Pigweed [8, 17]: 100 | Plant response rating, Pigweed [8, 18]: 100 | Plant response rating, Morningglory [9, 15]: 100 | Morningglory plant response rating [9, 16]: 100 | Plant response rating, Morningglory [9, 17]: 0 | Plant response rating, Morningglory [9, 18]: 80 | Plant response rating, Velvetleaf [10, 15]: 100 | Velvetleaf plant response rating [10, 16]: 100 | Plant response rating, Velvetleaf [10, 17]: 60 | Plant response rating, Velvetleaf [10, 18]: 100
